Laboratory results published in PubChem BioAssay AID256 (DTP/NCI, 2004).
Inconclusive results and toxic doses are left out.

System: CD2F1 mice, L1210 leukemia ip, survival T/C
Test: NCI In Vivo Anticancer Drug Screen. Data for tumor model L1210 Leukemia (intraperitoneal) in CD2F1 (CDF1) mice
Conditions: higher = longer survival
Procedure, shortened: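 Implant tumor; dose compound or vehicle; measure endpoint in both groups; report treated divided by control.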

[1] = endpoint: mean survival time, dose: 100.0 mg/kg/injection, schedule: Q04DX003 (ip), vehicle: acetone
[2] = endpoint: mean survival time, dose: 200.0 mg/kg/injection, schedule: Q04DX003 (ip), vehicle: acetone
[3] = endpoint: mean survival time, dose: 400.0 mg/kg/injection, schedule: Q04DX003 (ip), vehicle: acetone
[4] = endpoint: mean survival time, dose: 100.0 mg/kg/injection, schedule: Q01DX009 (ip), vehicle: saline with Tween-80
[5] = endpoint: mean survival time, dose: 200.0 mg/kg/injection, schedule: Q01DX009 (ip), vehicle: saline with Tween-80
[6] = endpoint: mean survival time, dose: 200.0 mg/kg/injection, schedule: Q04DX003 (ip), vehicle: saline with Tween-80
[7] = endpoint: mean survival time, dose: 400.0 mg/kg/injection, schedule: Q01DX009 (ip), vehicle: saline with Tween-80
[8] = endpoint: mean survival time, dose: 400.0 mg/kg/injection, schedule: Q04DX003 (ip), vehicle: saline with Tween-80
[9] = endpoint: mean survival time, dose: 100.0 mg/kg/injection, schedule: Q04DX003 (ip), vehicle: saline with Tween-80
[10] = endpoint: mean survival time, dose: 50.0 mg/kg/injection, schedule: Q01DX009 (ip), vehicle: saline with Tween-80
[11] = endpoint: mean survival time, dose: 100.0 mg/kg/injection, schedule: Q01DX009 (ip), vehicle: saline
[12] = endpoint: mean survival time, dose: 200.0 mg/kg/injection, schedule: Q01DX009 (ip), vehicle: saline

SMILES: Cc1ccc(/C(O)=C2/CC(C)(C)c3ccccc3C2=O)cc1
- T/C [1]: 92 % of control
- T/C [2]: 92 % of control
- T/C [3]: 88 % of control

SMILES: CC(=O)C1C(=O)OC2(C)C(=O)C3=COC(/C=C\C(C)=C/C(C)C)=CC3=CC12 (centres undefined)
- T/C [4]: 100 % of control
- T/C [5]: 104 % of control
- T/C [6]: 91 % of control
- T/C [7]: 111 % of control
- T/C [8]: 88 % of control

SMILES: CN(C)c1nc(-c2ccncc2)nc(N(C)C)n1
- T/C (endpoint: mean survival time, dose: 100.0 mg/kg/injection, schedule: Q04DX002 (ip), vehicle: saline with Tween-80): 92 % of control

SMILES: COC(=O)COc1cccc(NC(=O)CC(=O)c2cccc([N+](=O)[O-])c2)c1
- T/C (endpoint: mean survival time, dose: 100.0 mg/kg/injection, schedule: Q01DX009 (ip), vehicle: Klucel (hydroxypropylcellulose) (HPC)): 98 % of control
- T/C [9]: 101 % of control
- T/C (endpoint: mean survival time, dose: 200.0 mg/kg/injection, schedule: Q01DX009 (ip), vehicle: Klucel (hydroxypropylcellulose) (HPC)): 97 % of control
- T/C [6]: 98 % of control
- T/C (endpoint: mean survival time, dose: 400.0 mg/kg/injection, schedule: Q01DX009 (ip), vehicle: Klucel (hydroxypropylcellulose) (HPC)): 96 % of control
- T/C [8]: 93 % of control

SMILES: O=C1Cc2c([nH]c(=S)[nH]c2=O)N1
- T/C (endpoint: median survival time, dose: 50.0 mg/kg/injection, schedule: Q01DX005 (ip), vehicle: saline): 94 % of control
- T/C (endpoint: median survival time, dose: 100.0 mg/kg/injection, schedule: Q01DX005 (ip), vehicle: saline): 102 % of control
- T/C (endpoint: median survival time, dose: 200.0 mg/kg/injection, schedule: Q01DX005 (ip), vehicle: saline): 101 % of control

SMILES: O=C(CCc1ccc(S(=O)(=O)F)cc1)Nc1cccc(-c2nc3nc[nH]c(=O)c3[nH]2)c1
- T/C (endpoint: mean survival time, dose: 50.0 mg/kg/injection, schedule: Q01DX001 (ip), vehicle: saline with Tween-80): 94 % of control
- T/C (endpoint: mean survival time, dose: 100.0 mg/kg/injection, schedule: Q01DX001 (ip), vehicle: saline with Tween-80): 94 % of control
- T/C (endpoint: mean survival time, dose: 200.0 mg/kg/injection, schedule: Q01DX001 (ip), vehicle: saline with Tween-80): 90 % of control

SMILES: Cc1cc2ncn(C(=O)Nc3ccccc3)c2cc1C
- T/C [4]: 105 % of control
- T/C [5]: 94 % of control
- T/C [7]: 96 % of control

SMILES: Cc1cc([N+](=O)[O-])c(Cl)cc1NS(=O)(=O)c1ccccc1
- T/C [10]: 103 % of control
- T/C [4]: 101 % of control
- T/C [5]: 94 % of control

SMILES: CCCC(C(=O)OCC)C1=NC(C)(C)CC(C)O1 (centres undefined)
- T/C [1]: 100 % of control
- T/C [2]: 102 % of control
- T/C [3]: 94 % of control

SMILES: CN1c2c(nc(N)[nH]c2=O)NCC1CCNc1ccc(C(=O)NC(CCC(=O)O)C(=O)O)cc1 (centres undefined)
- T/C (endpoint: mean survival time, dose: 25.0 mg/kg/injection, schedule: Q01DX009 (ip), vehicle: Klucel (hydroxypropylcellulose) (HPC)): 118 % of control
- T/C (endpoint: mean survival time, dose: 50.0 mg/kg/injection, schedule: Q01DX009 (ip), vehicle: Klucel (hydroxypropylcellulose) (HPC)): 123 % of control
- T/C (endpoint: mean survival time, dose: 200.0 mg/kg/injection, schedule: Q01DX009 (ip), vehicle: sodium bicarbonate): 119 % of control
- T/C (endpoint: mean survival time, dose: 1250.0 mg/kg/injection, schedule: Q01DX009 (ip), vehicle: sodium bicarbonate): 155 % of control

SMILES: S=C=Nc1ccc(Cl)c2ccccc12
- T/C (endpoint: mean survival time, dose: 12.5 mg/kg/injection, schedule: Q04DX002 (ip), vehicle: saline with Tween-80): 90 % of control
- T/C (endpoint: mean survival time, dose: 25.0 mg/kg/injection, schedule: Q04DX002 (ip), vehicle: saline with Tween-80): 98 % of control
- T/C (endpoint: mean survival time, dose: 50.0 mg/kg/injection, schedule: Q04DX002 (ip), vehicle: saline with Tween-80): 102 % of control

SMILES: CC(C(=O)c1ccccc1)N(C)C (centres undefined)
- T/C (endpoint: mean survival time, dose: 100.0 mg/kg/injection, schedule: Q04DX003 (ip), vehicle: saline): 100 % of control

SMILES: NC(=O)c1ccccc1NC(=O)Nc1ccc(Cl)c(C(F)(F)F)c1
- T/C [10]: 87 % of control
- T/C [4]: 96 % of control
- T/C [5]: 93 % of control

SMILES: C=CCOc1ccc(OC)cc1
- T/C [9]: 97 % of control
- T/C [6]: 97 % of control
- T/C [8]: 92 % of control

SMILES: CCN(CC)C(=O)c1ccccc1
- T/C [11]: 98 % of control
- T/C [12]: 98 % of control

SMILES: CSCC(N)C(=O)O (centres undefined)
- T/C [11]: 103 % of control
- T/C [12]: 103 % of control
- T/C (endpoint: mean survival time, dose: 400.0 mg/kg/injection, schedule: Q01DX009 (ip), vehicle: saline): 97 % of control

SMILES: CC(C)CCOC(=S)S.[Pt]
- T/C (endpoint: mean survival time, dose: 9.37 mg/kg/injection, schedule: Q04DX003 (ip), vehicle: saline with Tween-80): 112 % of control
- T/C (endpoint: mean survival time, dose: 18.75 mg/kg/injection, schedule: Q04DX003 (ip), vehicle: saline with Tween-80): 96 % of control
- T/C (endpoint: mean survival time, dose: 37.5 mg/kg/injection, schedule: Q04DX003 (ip), vehicle: saline with Tween-80): 96 % of control
- T/C (endpoint: mean survival time, dose: 75.0 mg/kg/injection, schedule: Q04DX003 (ip), vehicle: saline with Tween-80): 104 % of control
- T/C (endpoint: mean survival time, dose: 150.0 mg/kg/injection, schedule: Q04DX003 (ip), vehicle: saline with Tween-80): 96 % of control
